Data set [1] relates to host-bone-allograft integrated structure (excised tibias). The data set is described as follows: Post-operative mechanical properties, compression in Instron 4511. The settings on record: 6 weeks post-op, compression 1 mm/min, vs U and C groups. The data set is classed as in vivo, Sprague Dawley rats. As to the method: All animal surgeries were performed according to an approved protocol from the UVA Animal Care and Use Committee. Briefly, adult male Sprague Dawley rats (˜400 g) were randomly assigned to three different experimental groups: uncoated allograft (U), coated 1:12 PLAGA (C), and coated 1:12 PLAGA loaded with 1:200 FTY720 (C/L). Animals were anesthetized with isoflurane gas. Following anesthetization, the dorsal skin was sterilized with betadine and 70% ethanol. A small incision was made longitudinally over the midshaft of the tibia. Subperiosteal dissection was performed once the subcutaneous tissue was dissected over the anterior aspect of the tibia. A Dremel rotary tool with a Diamond Wheel accessory was used to make an 8 mm defect slightly distal to the tibial tubercle and the 8 mm allograft segment was inserted into the defect. A stab incision was made just medial to the patellar tendon and a 19.5 gauge needle was inserted into the intramedullary canal, through the allograft, into the distal intramedullary canal to resistance, and tamped flush to the bone. […]
A leading cause of allograft failure or post-operative complications includes mechanical instability at the bone-allograft interface. […] To determine the elastic modulus, the slope was calculated between the values of 0.07 to 0.08 strain, since this was the interval in which the elastic region existed in all the graphs.

Data set [2] has as its system SMA-positive lumens (mural cell recruitment). In words: Smooth muscle alpha-actin (SMA) immunostaining of tibial defect sections. The settings on record: 6 weeks, interface/allograft regions, vs U and C groups. The data set is classed as in vivo, Sprague Dawley rats. As to the method: (§1) All animal surgeries were performed according to an approved protocol from the UVA Animal Care and Use Committee. Briefly, adult male Sprague Dawley rats (˜400 g) were randomly assigned to three different experimental groups: uncoated allograft (U), coated 1:12 PLAGA (C), and coated 1:12 PLAGA loaded with 1:200 FTY720 (C/L). Animals were anesthetized with isoflurane gas. Following anesthetization, the dorsal skin was sterilized with betadine and 70% ethanol. A small incision was made longitudinally over the midshaft of the tibia. Subperiosteal dissection was performed once the subcutaneous tissue was dissected over the anterior aspect of the tibia. […]
(§2) For CD45 staining to visualize leukocyte recruitment, four 7 μm-thick histological sections per sample (cryo-embedded) were blocked 3×10 minutes in PBS/saponin/BSA and immunolabeled with CD45 (BD Pharmingen) diluted 1:50 in PBS/saponin/BSA. […] To quantify changes in vascular remodeling (particularly recruitment of mural cells) in response to FTY720, SMA-positive cells that formed an obvious lumen were quantified in each tissue section. Total tissue area was measured in ImageJ, and the FTY720-mediated response was represented as a fraction of SMA-positive lumens per total tissue area.

A further data set concerns CD45+ leukocytes. The data set is described as follows: CD45 immunostaining of tibial defect sections. It is filed as in vivo, Sprague Dawley rats. As to conditions: 6 weeks, qualitative images. As to the method:
as §1, §2

Data set [3] deals with allograft-host bone interface. In words: H&E and Masson's trichrome staining of tibial defects. It is filed as in vivo, Sprague Dawley rats. As to conditions: 6 weeks healing, vs U and C groups. As to the method: as §1
For CD45 staining to visualize leukocyte recruitment, four 7 μm-thick histological sections per sample (cryo-embedded) were blocked 3×10 minutes in PBS/saponin/BSA and immunolabeled with CD45 (BD Pharmingen) diluted 1:50 in PBS/saponin/BSA. […] To quantify changes in vascular remodeling (particularly recruitment of mural cells) in response to FTY720, SMA-positive cells that formed an obvious lumen were quantified in each tissue section. Total tissue area was measured in ImageJ, and the FTY720-mediated response was represented as a fraction of SMA-positive lumens per total tissue area. […]

For data set [4] the following is noted: in vivo; cited from earlier work.
In a further data set the test system is arterioles. The settings on record: sustained release from 50:50 PLAGA films, 1:200 wt/wt; cited from earlier work.
Data set [5] relates to critical size calvarial bone defects. As to conditions: 3D PLAGA scaffolds delivering FTY720; cited from earlier work.
Data set [6] is described as follows: In vitro release of 33P-labelled S1P from PLAGA-coated allografts; encapsulation efficiency. It is filed as physicochemical. As to the method: Allograft samples were coated similarly to the above protocol with radio-labeled sphingosine-1-phosphate (S1P, Cayman Chemical, Ann Arbor Mich.) to measure drug release over a 14-day period. Specifically, 2.92 mg of S1P was resolubilized in MeCl to a final concentration of 2 mg/mL by frequent heating and vortexing. Using a conversion factor of 2.2×10^6 cpm/μCi and 1 μCi/μL, 6.8 μL of Phosphorus-33 (^33P) (Perkin Elmer, Inc., Waltham, Mass.) was added to the S1P solution. Next, 583 mg of 50:50 PLAGA was added to the S1P-^33P solution to achieve a 1:12 (wt./vol.) polymer-solvent ratio. The final solution had 2.92 mg of S1P, 6.8 μL of ^33P, and 583 mg of 50:50 PLAGA mixed in 7 mL of MeCl. The coated allografts were then placed into a glass scintillation vial containing 50 μL of simulated body fluid (SBF) with 4% fatty acid free (FAF) BSA. Following 24 hours incubation, the allografts were removed from the vials and the remaining 4% FAF-BSA SBF was mixed with 5 mL of EcoScintA biodegradable scintillation solution for quantifying drug release using the Beckman Coulter liquid scintillation counter. Allografts were then placed into a new glass vial containing fresh 4% FAF-BSA SBF. This cycle was repeated for a 14-day period to achieve cumulative measurements. Encapsulation efficiency (maximum amount of S1P that can be released) was quantified by placing allografts in MeCl to completely dissolve the drug-containing polymer solution.
To determine total amount of drug loaded into allograft implants and the kinetics of drug release, in vitro experiments were conducted utilizing allografts loaded with S1P-^33P (FIG. 3). Complete degradation of PLAGA occurs between 6-8 weeks. However, substantial S1P release was expected to occur earlier, given the bulk degradation profile of PLAGA. We found approximately 0.64 mg of the original 1 mg of S1P was actually loaded within the polymer-coated allograft (64% loading efficiency). After 14 days incubation, 0.57 mg of S1P was detected in the simulated body fluid (SBF). […]

For data set [7] the following is noted: in the absence of a carrier protein; cited from earlier work.
In data set [8] the test system is smooth muscle proliferation and migration. The settings on record: daily injections; cited from earlier work.

Entries after “also recorded” stand apart in the source; their conditions may differ.

With `CCCCCCCCc1ccc(CCC(N)(CO)CO)cc1` [FTY720, Fingolimod], in [1], the elastic modulus entry is given as “statistically significant increases” and the ultimate compressive strength result was “statistically significant increases”. For the same molecule, in [2], the “number of blood vessels stained with smooth muscle alpha-actin” value was “significantly increased; also recorded: enhanced the number of smooth-muscle-invested vessels”. In addition, the “number of CD45+ leukocytes within allograft-host bone interface” value in the data set with CD45+ leukocytes is “reductions in the number of leukocytes; also recorded: significant reduction”. Further, the “allograft-host bone integration, histology” value in data set [3] was “superior collagen alignment, osseous tissue generation along the outer edge of the allograft tissue, better preservation of inner cancellous porous regions, and preservation of allograft-tibial alignment”. The half-life result in data set [4] is given as “approximately 7 days”. Besides, the “microvascular remodeling (arterioles)” value in the data set with arterioles is “promotes formation of new arterioles and structural enlargement of existing arterioles”. Moreover, in data set [5], the “osseous tissue ingrowth and proportion of mature smooth muscle cell-invested microvessels” value was “significantly increases”.
`CCCCCCCCCCCCC/C=C/[C@@H](O)[C@@H](N)COP(=O)(O)O` [S1P, sphingosine-1-phosphate]: in [6] (50:50 PLAGA 1:12 coated allograft), the loading efficiency stood at 64%. For the same molecule, the release profile result in [6] (50:50 PLAGA coated allograft, SBF) is “initial burst release of drug was observed during the first five days”. Moreover, the “amount of S1P loaded within the polymer-coated allograft” value in [6] (of the original 1 mg of S1P, 50:50 PLAGA 1:12 coating) was “approximately 0.64 mg”. The half-life in blood entry in data set [4] is listed as “less than 1 hour”. Also, the “solubility in aqueous solutions” value in data set [7] was “insoluble”.
As to `CCCCCCCCc1cccc(NC(=O)[C@H](N)CCP(=O)(O)O)c1` [VPC44116], in data set [8], the “smooth muscle proliferation and migration” value is “significantly decreased”.

These data come from patent publication US20120213837A1, “COMPOSITIONS AND METHODS FOR BIOACTIVE COATINGS TO IMPROVE ALLOGRAFT INCORPORATION” (priority 2009, published 2012).
